# From patent publication US7550431B2, “Spatially-defined macrocycles incorporating peptide bond surrogates” (Tranzyme Pharma Inc., priority 2003, dated 2009)
# Biological target: T1, human motilin receptor (Homo sapiens, UniProt O43193)
# T1 construct: purchased PerkinElmer (SignalScreen) 6110544; host or cells: CHO cells, stably transfected (membranes)
# Experiment: Competitive radioligand binding assay (motilin receptor), Method B1
# Conditions: [125I]-motilin competition, CHO cell membranes
# Description: (§1) The compounds of the present invention were evaluated for their ability to interact at the human motilin receptor and the human ghrelin receptor utilizing competitive radioligand binding assays as described in Method B1 and B2, respectively. Further characterization of the interaction can be performed utilizing the functional assays described in Methods B3 and B4 for the motilin and ghrelin receptors, respectively. All of these methods can be conducted, if so desired, in a high throughput manner to permit the simultaneous evaluation of many compounds.
# Competitive Radioligand Binding Assay (Motilin Receptor)
# • Membranes were prepared from CHO cells stably transfected with the human motilin receptor and utilized at a quantity of 1.5 μg/assay point. [PerkinElmer® SignalScreen® Product #6110544, Perkin Elmer, Inc., Wellesley, Mass.] • [^125I]-Motilin (PerkinElmer®, #NEX-378); final concentration: 0.04-0.06 nM • Motilin (Bachem®, #H-4385, Bachem AG Corporation, Bubendorf, Switzerland); final concentration: 1 μM • Multiscreen® Harvest plates-GF/B (Millipore®, #MAHFB1H60, Millipore Corporation, Billerica, Mass.) • Deep-well polypropylene titer plate (Beckman Coulter®, #267006, Beckman Coulter, Inc., Fullerton, Calif.) • TopSeal-A (PerkinElmer®, #6005185) • Bottom seal (Millipore®, #MATAH0P00) • MicroScint™-0 (PerkinElmer®, #6013611) • Binding Buffer: 50 mM Tris-HCl (pH 7.4), 10 mM MgCl2, 1 mM EDTA, 0.1% BSA
# Assay Volumes: • 150 μl of membranes diluted in binding buffer • 10 μl of compound diluted in binding buffer • 10 μl of radioligand ([^125I]-Motilin) diluted in binding buffer
# (§2) Compounds were provided frozen on dry ice at a stock concentration of 10 mM diluted in 100% DMSO and stored at −20° C. until the day of testing. On the test day, compounds were allowed to thaw at room temperature and than diluted in assay buffer according to the desired test concentrations. Under these conditions, the maximum final DMSO concentration in the assay was 0.5%.
# In deep-well plates, diluted cell membranes (1.5 μg/mL) are combined with 10 μl of either binding buffer (total binding, N=5), 1 μM motilin (non-specific binding, N=3) or the appropriate concentration of test compound. The reaction is initiated by addition of 10 μl of [^125I]-motilin (final conc. 0.04-0.06 nM) to each well. Plates are sealed with TopSeal-A, vortexed gently and incubated at room temperature for 2 hours. The reaction is arrested by filtering samples through pre-soaked (0.3% polyethyleneimine, 2 h) Multiscreen® Harvest plates using a Tomtec ® Harvester (TomTec, Inc., Hamden Conn.), washed 9 times with 500 μl of cold 50 mM Tris-HCl (pH 7.4), and than plates are air-dried in a fumehood for 30 minutes. A bottom seal is applied to the plates prior to the addition of 25 μl of MicroScint™-0 to each well. Plates are than sealed with TopSeal-A and counted for 30 sec per well on a TopCount® Microplate Scintillation and Luminescence Counter (PerkinElmer®) where results are expressed as counts per minute (cpm).
# Data are analyzed by GraphPad Prism® (GraphPad Software, Inc., San Diego, Calif.) using a variable slope non-linear regression analysis.
# [formula] where total and non-specific binding represent the cpm obtained in the absence or presence of 1 μM motilin, respectively.
# T1 sequence (O43193 whole entry): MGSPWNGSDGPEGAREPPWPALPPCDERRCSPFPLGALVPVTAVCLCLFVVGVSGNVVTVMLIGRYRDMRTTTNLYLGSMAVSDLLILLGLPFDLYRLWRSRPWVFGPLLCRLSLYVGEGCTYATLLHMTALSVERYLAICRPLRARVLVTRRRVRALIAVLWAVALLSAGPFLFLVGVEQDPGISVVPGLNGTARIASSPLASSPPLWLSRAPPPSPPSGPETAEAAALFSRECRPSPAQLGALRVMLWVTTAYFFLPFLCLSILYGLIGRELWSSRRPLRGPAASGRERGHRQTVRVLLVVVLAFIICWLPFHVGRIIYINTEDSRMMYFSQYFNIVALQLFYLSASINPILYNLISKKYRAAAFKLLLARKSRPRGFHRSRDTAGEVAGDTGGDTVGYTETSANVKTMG
row,Ki [nM],SMILES
1,1000 to 10000,CCC[C@@H]1NC(=O)[C@@H](C(C)C)NC(=O)[C@@H](Cc2ccc(O)cc2)NCCOc2ccccc2CCCOC1=O [Compound 115]
2,100 to 1000,CC(C)C[C@H]1C(=O)NCCCc2ccccc2OCCN[C@H](Cc2ccc(O)cc2)C(=O)N[C@H](C(C)C)C(=O)N1C [Compound 116]
3,1000 to 10000,CCC[C@@H]1NC(=O)[C@@H](C(C)C)/C=C/[C@@H](Cc2ccc(OC)cc2)NCCOc2ccccc2CCCNC1=O [Compound 105]
4,100 to 1000,CCC[C@@H]1NC(=O)C(C(C)C)OC(=O)[C@@H](Cc2ccc(OC)cc2)NCCOc2ccccc2CCCNC1=O (stereo partly shown) [Compound 112]
5,1000 to 10000,CCC[C@@H]1CC[C@@H](C(C)C)NC(=O)[C@@H](Cc2cccc(Cl)c2)NCCOc2ccccc2CCCNC1=O [Compound 103]
6,10 to 100,CC(C)[C@H]1CC[C@@H](Cc2cccc(Cl)c2)NCCOc2ccccc2CCCNC(=O)[C@H](CNC(=N)N)NC1=O [Compound 101]
7,100 to 1000,CCC[C@@H]1NC(=O)[C@@H](C(C)C)OC(=O)[C@@H](Cc2cccc3ccccc23)NCCOc2ccccc2CCCNC1=O [Compound 111]
8,1000 to 10000,CCC[C@@H]1NC(=O)C(C(C)C)CC[C@@H](Cc2ccc(OC)cc2)NCCOc2ccccc2CCCNC1=O (stereo partly shown) [Compound 110]
9,100 to 1000,CCC[C@@H]1NC(=O)[C@@H](C(C)C)OC(=O)[C@@H](Cc2ccc(O)cc2)NCCOc2ccccc2CCCNC1=O [Compound 119]
10,1000 to 10000,CCC[C@@H]1/C=C/[C@@H](C(C)C)NC(=O)[C@@H](Cc2cccc(Cl)c2)NCCOc2ccccc2CCCNC1=O [Compound 104]
11,100 to 1000,CCC[C@@H]1NC(=O)[C@@H](C(C)C)CC[C@@H](Cc2ccc(OC)cc2)NCCOc2ccccc2CCCNC1=O [Compound 109]

# Biological target: T2, human ghrelin receptor (hGHS-R1a) (Homo sapiens, UniProt Q92847)
# T2 construct: purchased PerkinElmer BioSignal RBHGHSM, lot#1887; host or cells: HEK-293 cells, stably transfected (membranes GHS-R/HEK 293)
# Experiment: Competitive radioligand binding assay (ghrelin receptor), Method B2
# Conditions: [125I]-ghrelin competition, HEK-293 cell membranes
# Description: as §1
# Competitive Radioligand Binding Assay (Ghrelin Receptor)
# The competitive binding assay at the human growth hormone secretagogue receptor (hGHS-R1a) was carried out analogously to assays described in the literature. (Bednarek M A et al. (2000), Structure-function studies on the new growth hormone-releasing peptide ghrelin: minimal sequence of ghrelin necessary for activation of growth hormone secretagogue receptor 1a; J Med Chem 43:4370-4376. Palucki B L et al. (2001), Spiro(indoline-3,4′-piperidine) growth hormone secretagogues as ghrelin mimetics; Bioorg Med Chem Lett 11:1955-1957.)
# • Membranes (GHS-R/HEK 293) were prepared from HEK-293 cells stably transfected with the human ghrelin receptor (hGHS-R1a).
# as §2, with “−80°” for “−20°”, “rt overnight” for “room temperature”, “then” for “than”, “maximal” for “maximum”, “0.1%.” for “0.5%.”
# In deep-well plates, 220 μl of diluted cell membranes (final concentration: 0.71 μg/well) were combined with 40 μl of either binding buffer (total binding, N=5), 1 μM ghrelin (non-specific binding, N=3) or the appropriate concentration of test compound (N=2 for each test concentration). […] Plates were sealed with TopSeal-A, vortexed gently and incubated at rt for 30 min. The reaction was arrested by filtering samples through Multiscreen® Harvest plates (pre-soaked in 0.5% polyethyleneimine) using a Tomtec® Harvester, washed 9 times with 500 μL of cold 50 mM Tris-HCl (pH 7.4, 4° C.), and then plates were air-dried in a fumehood for 30 min. A bottom seal was applied to the plates prior to the addition of 25 μl of MicroScint™-0 to each well. Plates were than sealed with TopSeal-A and counted for 30 sec per well on a TopCount® Microplate Scintillation and Luminescence Counter (PerkinElmer®) using a count delay of 60 sec. Results were expressed as counts per minute (cpm).
# Data were analyzed by GraphPad Prism® (GraphPad Software, Inc., San Diego, Calif.) using a variable slope non-linear regression analysis.
# T2 sequence (Q92847 whole entry): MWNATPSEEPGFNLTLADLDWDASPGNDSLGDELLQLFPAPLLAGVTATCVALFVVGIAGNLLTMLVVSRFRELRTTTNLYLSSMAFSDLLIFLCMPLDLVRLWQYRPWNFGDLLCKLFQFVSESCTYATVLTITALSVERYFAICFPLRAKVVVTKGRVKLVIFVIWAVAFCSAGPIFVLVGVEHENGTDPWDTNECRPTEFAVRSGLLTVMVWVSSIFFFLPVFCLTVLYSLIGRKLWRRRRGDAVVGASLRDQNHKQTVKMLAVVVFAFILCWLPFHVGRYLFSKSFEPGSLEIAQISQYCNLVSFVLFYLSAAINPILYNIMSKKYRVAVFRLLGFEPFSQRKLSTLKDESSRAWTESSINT
row,SMILES,Ki [nM]
1,CCC[C@@H]1NCc2cccc(c2)CNC(=O)[C@@H](Cc2ccccc2)NC(=O)CN(C)C1=O [Compound 158],1000 to 10000
2,C[C@@H]1C(=O)N[C@H](Cc2ccc(F)cc2)C(=O)NCCOCCOCCN[C@@H](C2CC2)C(=O)N1C [Compound 140],1000 to 10000
3,CCC(C)[C@@H]1NCCOc2ccccc2/C=C/CNC(=O)N(Cc2ccccc2)NC(=O)[C@@H](C)N(C)C1=O (stereo partly shown) [Compound 165],10 to 100
4,C[C@@H]1C(=O)N[C@H](Cc2ccc(F)cc2)C(=O)NCCOc2cccc(c2)OCCN[C@@H](C2CC2)C(=O)N1C [Compound 149],100 to 1000
5,CN1CC(=O)N[C@H](Cc2ccccc2)C(=O)NCCCc2ccccc2OCCN[C@@H](Cc2ccccc2)C1=O [Compound 128],100 to 1000

# Further lines, results first:
row,Ki [nM],SMILES
1,1000 to 10000,CCC(C)[C@@H]1NCCOc2ccccc2CCCNC(=O)[C@@H](Cc2ccccc2)NC(=O)[C@@H](C(C)CC)N(C)C1=O (stereo partly shown) [Compound 136]
2,100 to 1000,CCC[C@H]1C(=O)N(C)[C@H](C)C(=O)N[C@H](Cc2ccccc2)C(=O)NCCCc2ccccc2OCCN1C [Compound 167]
3,1000 to 10000,CN1CC(=O)N[C@H](Cc2ccccc2)C(=O)NCCCc2ccccc2OCCN[C@@H](CCCCN)C1=O [Compound 127]
4,100 to 1000,CCC(C)[C@@H]1NCCOc2ccccc2CCCNC(=O)[C@@H](Cc2ccccc2)NC(=O)[C@H](C(C)CC)N(C)C1=O (stereo partly shown) [Compound 138]
5,1000 to 10000,C[C@@H]1NCCOc2ccccc2CCCNC(=O)[C@@H](Cc2ccccc2)NC(=O)CN(C)C1=O [Compound 124]
6,100 to 1000,CCC(C)[C@@H]1NCCOc2ccccc2CCCNC(=O)[C@@H](Cc2ccccc2)NC(=O)[C@H](C(C)C)N(C)C1=O (stereo partly shown) [Compound 131]
